Test results reported in article PMC3827198, “Characterisation of AmphiAmR11, an Amphioxus (Branchiostoma floridae) D2-Dopamine-Like G Protein-Coupled Receptor” (PLoS ONE, 2013).
Counter-ions that a name gives are not always drawn. Like-named read-outs stand apart in the source and are kept apart here.

Legend:
[1] = molecular target: T1, AmphiAmR11 (Branchiostoma floridae, UniProt A0PF35); experiment: Block of tyramine-induced inhibition of forskolin-stimulated cAMP levels in AmphiAmR11-expressing CHO-K1 cells; format: cell-based; conditions: 30 nM tyramine
[2] = molecular target: T1, AmphiAmR11; experiment: Inhibition of forskolin-stimulated cAMP levels in AmphiAmR11-expressing CHO-K1 cells (agonist mode); format: cell-based; conditions: for Effect on forskolin-stimulated cAMP levels at 1 µM: 1 µM agonist
Method: CHO-K1 cells were maintained in Ham’s F-12 nutrient media (Invitrogen Life Sciences) supplemented with 10% charcoal-stripped foetal bovine serum (CS-FBS) (Hyclone, Cramlington, UK), 50 U/μg penicillin/streptomycin and 4 mM L-glutamine (Invitrogen Life Sciences) in 5% CO2 at 37°C. Stably transfected cell lines were generated by the transfection of CHO-K1 cells using Lipofectamine (Invitrogen Life Sciences) as described previously [8, 9].
cAMP levels in stably transfected CHO-K1 cells were determined as described previously [8, 9, 21], except 100 µM isobutylmethylxanthine (IBMX) was used. cAMP levels are represented as a percentage of basal samples unless otherwise stated. Student’s T-test (two-tailed and unpaired) was used to test for significance. Unless otherwise stated, all data are shown as mean ± SEM. Each data point plotted was the mean of data obtained from at least three experiments. Within each experiment three separate replicate wells were analysed for each condition and the cAMP assays on each of the wells was carried out in duplicate.
Forskolin was used both to increase basal cAMP levels to make it easier to detect increases and decreases in cAMP levels in the same experiments and also to potentiate responses to agonists to more accurately determine their threshold effects [see 22]. A non-saturating 10 µM concentration of forskolin was used.
Figure 1 Effect of biogenic amines and synthetic agonists on forskolin-stimulated cAMP levels in AmphiAmR11-expressing CHO-K1 cells. Cells were pre-incubated with 100 µM IBMX for 20 min, followed by incubation with 10 µM forskolin and 100 µM IBMX in the presence of increasing concentrations of various biogenic amines (A) or synthetic agonists (B) for a further 20 min. Data are expressed as the mean ± SEM. n ≥ 3.

[3] = molecular target: T1, AmphiAmR11; experiment: ERK1/2 phosphorylation in AmphiAmR11-expressing CHO-K1 cells (Western blotting); format: cell-based; conditions: for Effect of antagonist on ERK1/2 phosphorylation in the absence of dopamine: 1 μM antagonist; for Effect on ERK1/2 phosphorylation at 10 nM: 10 nM biogenic amine
[4] = molecular target: T1, AmphiAmR11; experiment: Block of dopamine-induced ERK1/2 activation in AmphiAmR11-expressing CHO-K1 cells by antagonists; format: cell-based; conditions: 1 µM antagonist, 10 nM dopamine, 5 min
[5] = molecular target: T1, AmphiAmR11; experiment: cell-based; format: cell-based; conditions: for Concentrations coupling AmphiAmR11 to an increase in cAMP levels: after pertussis toxin; for Effect on forskolin-stimulated cAMP levels following pertussis toxin treatment: amines at 100 µM
[6] = molecular target: T1, AmphiAmR11; experiment: Calcium mobilisation in AmphiAmR11-expressing CHO-K1 cells (Fura-2, percentage of responding cells per field of view); format: cell-based
Method: Stably transfected CHO-K1 cells were assayed for changes in intracellular calcium levels using an Olympus Cell^R imaging system and the fluorescent indicator Fura-2, as described previously, with modifications described by Bayliss et al.. At 1 minute into the experiment, a buffer control was added and at 2 minutes into the experiment, the specified concentration of agonist was added. A single coverslip of cells was used per concentration of agonist and the percentage of cells that responded per field of view was calculated. The results from each coverslip gave an n of 1 and each agonist concentration was repeated at least three times on different days.
Figure 6 Effect of biogenic amines and calcium pathway inhibitors on calcium mobilisation in AmphiAmR11-expressing CHO-K1 cells. AmphiAmR11-expressing cells were exposed to increasing concentrations (A) or 10 nM (B) of biogenic amines for 3 minutes and the number of responding cells per field of view were calculated. Data are expressed as the mean ± SEM. n ≥ 3. FOV, field of view; DA, dopamine; TA, tyramine; NA, noradrenaline; Adr, adrenaline; OA, octopamine.

[7] = tested on: dopamine-induced ERK1/2 activation; experiment: Effect of pertussis toxin and signalling inhibitors on agonist-induced ERK1/2 activation in AmphiAmR11-expressing CHO-K1 cells; format: cell-based, Chinese hamster; conditions: for Effect of inhibitor on dopamine-induced ERK1/2 phosphorylation: 10 µM inhibitor, 5 minutes
Method: Phospho-extracellular signal-related kinase (Phospho-ERK) levels were determined essentially as described previously. Minor modifications have been described. ERK1/2 phosphorylation levels were quantified by densitometry. The developed films were scanned in and analysed using the software program, Aida. The data generated by Aida was then processed using Microsoft Excel. Values for the kinase expression and activity levels were defined as 100% in the control samples. Student’s T-test (two-tailed and unpaired) was used to test for significance.
Figure 5 Effect of pertussis toxin and signalling inhibitors on dopamine-induced ERK1/2 activation in AmphiAmR11-expressing CHO-K1 cells. For the pertussis toxin experiment, AmphiAmR11-expressing CHO-K1 cells were pre-incubated with pertussis toxin (200 ng/ml) for 16 hours prior to serum-starvation for 2 hours in the absence of the toxin. Cells were then stimulated for 5 mins with 10 nM dopamine (open bar) or F-12 Hams control (black bar). For all other inhibitors, AmphiAmR11-expressing CHO-K1 cells were serum starved for 2 hours including incubation with 10 µM inhibitor or F-12 Hams control for the final 20 (AG1296 and AG1478) or 30 (PP2, LY294002, Ro31-8220, U0126, U73122 and U73343) minutes. Cells were then stimulated for 5 minutes with 10 nM dopamine […] in the presence of the inhibitor. Basal measurement in the absence of dopamine and inhibitor (first black bar) and the dopamine-only response in the absence of inhibitor (first open bar) are shown. (A) Representative blots from three or four independent experiments. […] Data are expressed as the mean + SEM. n = 3 - 4. DA, dopamine; PTX, pertussis toxin; Ro, Ro 31-8220; LY, LY294002.
Figure S3. Time courses for the effect of dopamine and tyramine on ERK1/2 phosphorylation in AmphiAmR11-expressing CHO-K1 cells. (A and B) AmphiAmR11-expressing CHO-K1 cells were serum-starved for 2 hours, prior to stimulation with tyramine or dopamine at the specified concentration for the specified length of time. Equal quantities of cell lysates were separated by SDS-PAGE and analysed for pERK or tERK by Western blotting. (C and D): AmphiAmR11-expressing CHO-K1 cells were incubated with pertussis toxin (200 ng/mL) for 16 hours followed by stimulation as described for Figures A and B. (A to D) Representative blot for each condition from three to four independent experiments. (E) Summary of the quantified blots. Data are expressed as the mean ± SEM. n = 3-4. PTX, pertussis toxin; Min, minutes.

[8] = 1 μM antagonist, 10 µM forskolin
[9] = 10 µM forskolin, 100 µM IBMX, 20 min, full concentration response curves, read-out: EC50 for decrease in forskolin-stimulated cAMP levels
[10] = 1 µM synthetic agonist, 5 min, dopamine as reference
[11] = pertussis toxin 200 ng/mL, 16 hours
[12] = 10 µM forskolin, 100 µM IBMX, 20 min

T1 sequence (A0PF35 entry or part of it): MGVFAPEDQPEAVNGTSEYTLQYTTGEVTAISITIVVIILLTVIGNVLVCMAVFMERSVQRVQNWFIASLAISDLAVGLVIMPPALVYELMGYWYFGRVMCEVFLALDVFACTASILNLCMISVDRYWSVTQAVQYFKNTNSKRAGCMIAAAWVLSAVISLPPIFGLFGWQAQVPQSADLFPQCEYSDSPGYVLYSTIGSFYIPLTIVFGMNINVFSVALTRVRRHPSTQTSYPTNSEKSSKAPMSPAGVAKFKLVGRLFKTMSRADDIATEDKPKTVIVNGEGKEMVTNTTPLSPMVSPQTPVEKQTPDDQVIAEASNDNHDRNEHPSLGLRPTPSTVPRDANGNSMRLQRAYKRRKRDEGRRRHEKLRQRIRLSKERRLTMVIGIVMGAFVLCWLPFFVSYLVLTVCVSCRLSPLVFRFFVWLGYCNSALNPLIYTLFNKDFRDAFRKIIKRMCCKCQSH

COc1cccc(OC)c1OCCNCC1COc2ccccc2O1 (stereo not drawn) [WB4101]
Blocking effect on tyramine-induced response at reduced antagonist concentrations ([1]; varying concentrations of antagonist): small blocking effect | Decrease of forskolin-stimulated cAMP levels by antagonist in the absence of agonist [2, 8]: could inhibit forskolin-stimulated cAMP levels | EC50 [2, 9]: 32 nM | Agonist type at AmphiAmR11 (full or partial) ([2]; cAMP assay): partial agonist | Inhibition of forskolin-stimulated cAMP levels (maximal) ([2]; concentration-response curves, absence of other agonist): approximately 75% | Effect of antagonist on ERK1/2 phosphorylation in the absence of dopamine [3]: increase in ERK1/2 phosphorylation | Block of dopamine-induced ERK1/2 activation [4]: partial effect

Brc1c(NC2=NCCN2)ccc2nccnc12 [UK14,304, UK14304]
EC50 [2]: 350 nM | Effect on ERK1/2 phosphorylation at 1 µM [3, 10]: most effective of the synthetic agonists

Oc1cc2c(cc1O)[C@@H](c1ccccc1)CNCC2 [SKF38393, R(+)-1-phenyl-2,3,4,5-tetrahydro-(^1H)-3-benzazepine-7,8-diol]
EC50 [2, 9]: 792 nM | Effect on ERK1/2 phosphorylation at 1 µM [3, 10]: less effective than naphazoline, UK14,304 and quinpirole

NCCc1ccc(O)c(O)c1 [dopamine, dopamine hydrochloride]
EC50 [5]: 470 nM | Concentrations coupling AmphiAmR11 to an increase in cAMP levels [5]: less than 1 µM | Effect on forskolin-stimulated cAMP levels following pertussis toxin treatment [5, 11]: increase in forskolin-stimulated cAMP levels | EC50 [2]: 16.7 nM | EC50 [6]: 1.68 nM | Fold more potent than tyramine in calcium assay ([6]; ratio of EC50 values): approximately 450 fold | EC50 [3]: 1.27 nM | Duration of ERK1/2 phosphorylation response after the peak ([3]; 1 µM tyramine (level by 30 minutes) or 30 nM dopamine): more sustained ERK1/2 phosphorylation response | Time of peak ERK1/2 phosphorylation ([3]; 1 µM tyramine or 30 nM dopamine): approximately 5 minutes | Fold more potent than tyramine in MAPK assay ([3]; ratio of EC50 values): 10 fold

N#CC(=C(N)Sc1ccccc1N)C(C#N)=C(N)Sc1ccccc1N [U0126, 1,4-Diamino-2,3-dicyano-1,4-bis(o-aminophenylmercapto)butadiene]
Effect of inhibitor on dopamine-induced ERK1/2 phosphorylation ([7]; 10 nM dopamine): abolished

NCC(O)c1ccc(O)cc1 (racemic) [octopamine, (±)-p-octopamine hydrochloride]
Effect on forskolin-stimulated cAMP levels following pertussis toxin treatment [5, 11]: did not induce an increase | EC50 [2, 9]: 1300 nM | Calcium response at 10 nM ([6]; 10 nM biogenic amine, compared with dopamine): less effective than dopamine | Effect on ERK1/2 phosphorylation at 10 nM ([3]; 5 min): not able to increase

COc1cc2ncnc(Nc3cccc(Cl)c3)c2cc1OC [AG1478, tyrphostin AG 1478]
Effect of inhibitor on dopamine-induced ERK1/2 phosphorylation ([7]; 10 nM dopamine): neither inhibitor had a significant effect

COc1cc2ncc(-c3ccccc3)nc2cc1OC [AG1296, tyrphostin AG1296]
Effect of inhibitor on dopamine-induced ERK1/2 phosphorylation ([7]; 10 nM dopamine): neither inhibitor had a significant effect

CNCC(O)c1ccc(O)cc1 (racemic) [synephrine, (±)-synephrine]
Effect on forskolin-stimulated cAMP levels following pertussis toxin treatment [5, 11]: did not induce an increase | EC50 [2]: 1650 nM | Effect on ERK1/2 phosphorylation at 10 nM ([3]; 5 min): not able to increase

NCCc1c[nH]cn1 [histamine, histamine dihydrochloride]
Effect on forskolin-stimulated cAMP levels at 1 µM [2, 12]: no effect | Effect on ERK1/2 phosphorylation at 10 nM ([3]; 5 min): not able to increase

Clc1cccc(Cl)c1N=C1NCCN1 [clonidine, clonidine hydrochloride]
EC50 [2]: 623 nM | Effect on ERK1/2 phosphorylation at 1 µM [3]: less effective than naphazoline, UK14,304 and quinpirole

CC(N)c1ccccc1 (racemic) [phenylethylamine, (±)-1-phenylethylamine]
Concentrations coupling AmphiAmR11 to an increase in cAMP levels [5]: above 1 µM | Effect on forskolin-stimulated cAMP levels following pertussis toxin treatment [5, 11]: increase in forskolin-stimulated cAMP levels | Concentration dependence of increase in forskolin-stimulated cAMP levels following pertussis toxin ([5]; pertussis toxin 200 ng/mL, 16 h, up to 100 µM): concentration-dependent effects | EC50 [2, 9]: 16.5 nM | EC50 ([3]; 5 min stimulation, read-out: EC50 for inducing ERK1/2 phosphorylation): 57.8 nM

pertussis toxin
Effect of pertussis toxin on tyramine- and dopamine-induced ERK1/2 phosphorylation at multiple time points ([7]; pertussis toxin 200 ng/mL, 16 hours, 1 µM tyramine, 30 nM dopamine): abolished | Effect of pertussis toxin on ERK1/2 response at 5 minutes of dopamine stimulation ([7]; pertussis toxin 200 ng/ml, 16 hours, 10 nM dopamine): abolished | Effect of pertussis toxin treatment on amine-mediated decreases in forskolin-stimulated cAMP levels [5, 11]: inhibit the amine-mediated decreases

Br.C=CCN1CCc2c(cc(O)c(O)c2Cl)C(c2ccccc2)C1 (racemic) [6-Chloro-APB, (±)-6-chloro-7,8-dihydroxy-3-allyl-1-phenyl-2,3,4,5-tetrahydro-^1H-3-benzazepine hydrobromide]
EC50 [2, 9]: 2230 nM | Effect on ERK1/2 phosphorylation at 1 µM [3, 10]: less effective than naphazoline, UK14,304 and quinpirole

CCN(CC)CCNC(=O)c1cc(Cl)c(N)cc1OC [metoclopramide, metoclopramide hydrochloride]
Block of tyramine-induced inhibition of forskolin-stimulated cAMP levels [1, 8]: no significant blocking effect | Effect of antagonist on ERK1/2 phosphorylation in the absence of dopamine [3]: did not exhibit any agonistic properties | Block of dopamine-induced ERK1/2 activation [4]: no significant effect

Cn1cc(C2=C(c3cn(CCCSC(=N)N)c4ccccc34)C(=O)NC2=O)c2ccccc21 [Ro 31-8220]
Effect of inhibitor on dopamine-induced ERK1/2 phosphorylation ([7]; 10 nM dopamine): near basal levels

CC(C)(C)n1nc(-c2ccc(Cl)cc2)c2c(N)ncnc21 [PP2, 3-(4-chlorophenyl) 1-(1,1-dimethylethyl)-1H-pyrazolo[3,4-d]pyrimidin-4-amine]
Effect of inhibitor on dopamine-induced ERK1/2 phosphorylation ([7]; 10 nM dopamine): no effect

CC(C)NCC(O)c1ccc(O)c(O)c1 (racemic) [isoproterenol, (±)-isoproterenol hydrochloride]
Effect on forskolin-stimulated cAMP levels at 1 µM [2, 12]: little or no effect | Effect on ERK1/2 phosphorylation at 1 µM [3, 10]: little or no effect

CNC[C@H](O)c1cccc(O)c1 [phenylephrine, (R)-(-)-phenylephrine hydrochloride]
Effect on forskolin-stimulated cAMP levels at 1 µM [2, 12]: little or no effect | Effect on ERK1/2 phosphorylation at 1 µM [3, 10]: little or no effect
